{"source": "patent USRE48461E1", "about": "“Modulation of androgen receptor expression” (Ionis Pharmaceuticals, Inc., priority 2012, dated 2021)", "key": {"[1]": {"tested_on": "KLK3 mRNA", "test": "KLK3 mRNA (AR target gene) in C4-2B MR cells", "type": "cell-based, human"}, "[2]": {"tested_on": "total AR mRNA", "test": "Total (full-length) AR mRNA in C4-2B MR cells, free uptake", "type": "cell-based, human", "conditions": "free uptake, 24 hrs", "protocol": "Cells were plated at a density of 40,000 cells per well in 96-well plates and cultured in RPMI1640 medium with 10% fetal bovine serum. […] ISIS 549372, ISIS 549458, ISIS 549434, and ISIS 554221 were each added at 0.04 μM, 0.20 μM, 1.00 μM, and 5.00 μM concentrations of antisense oligonucleotide to culture media for free uptake by the cells. […] After a treatment period of 24 hrs, total AR mRNA levels were measured by quantitative real-time PCR using primer probe set RTS3559."}, "[3]": {"tested_on": "C4-2B MR cells", "test": "Proliferation of MDV3100-resistant C4-2B cells (CellTiter 96)", "type": "cell-based, human", "conditions": "6 days", "protocol": "ISIS 549372, ISIS 549434, ISIS 549458, and ISIS 554221 were each added to the culture media at 0.04 μM, 0.20 μM, 1.00 μM, and 5.00 μM concentration of antisense oligonucleotide. ISIS 347526 was included as a negative control. After a treatment period of 6 days, the proliferative capacity of the cancer cells was measured with using CellTiter 96® AQueous One Solution Cell Proliferation kit (Promega), following the manufacturer's instructions. Results are presented in Table 41 as percent inhibition of proliferation, relative to non-treated cells."}, "[4]": {"tested_on": "KLK2 mRNA", "test": "KLK2 mRNA (AR target gene) in C4-2B MR cells", "type": "cell-based, human"}, "[5]": {"conditions": "cynomolgus monkey, in vivo, sc, 40 mg/kg"}, "[6]": {"conditions": "cynomolgus monkey, in vivo, sc, 40 mg/kg", "remark": "listed apart in the source"}, "[7]": {"conditions": "cynomolgus monkey, in vivo, sc, 40 mg/kg", "remark": "listed apart in the source"}, "[8]": {"conditions": "cynomolgus monkey, in vivo, sc, 40 mg/kg", "remark": "listed apart in the source"}, "[9]": {"conditions": "cynomolgus monkey, in vivo, sc, 40 mg/kg", "remark": "listed apart in the source"}, "[10]": {"conditions": "cynomolgus monkey, in vivo, sc, 40 mg/kg", "remark": "listed apart in the source"}}, "note": "e = 2'-O-(2-methoxyethyl) (MOE); d = 2'-deoxy (DNA)"}
{"substance": "347526 (TCTTATGTTTCCGAACCGTT; sugars from the 5' end e5 d10 e5, backbone and methylation of C not given here) [compound 347526]", "values": [{"measurement": "Percent inhibition of KLK3 mRNA in C4-2B MR cells", "setting": "[1]; 0.04 μM", "result": 5, "unit": "%"}, {"measurement": "Percent inhibition of KLK3 mRNA in C4-2B MR cells", "setting": "[1]; 0.20 μM", "result": 38, "unit": "%"}, {"measurement": "Percent inhibition of KLK3 mRNA in C4-2B MR cells", "setting": "[1]; 1.00 μM", "result": 42, "unit": "%"}, {"measurement": "Percent inhibition of KLK3 mRNA in C4-2B MR cells", "setting": "[1]; 5.00 μM", "result": 16, "unit": "%"}, {"measurement": "Percent inhibition of full-length AR mRNA in C4-2B MR cells", "setting": "[2]; 0.04 μM", "result": 28, "unit": "%"}, {"measurement": "Percent inhibition of full-length AR mRNA in C4-2B MR cells", "setting": "[2]; 0.20 μM", "result": 35, "unit": "%"}, {"measurement": "Percent inhibition of full-length AR mRNA in C4-2B MR cells", "setting": "[2]; 1.00 μM", "result": 31, "unit": "%"}, {"measurement": "Percent inhibition of full-length AR mRNA in C4-2B MR cells", "setting": "[2]; 5.00 μM", "result": 17, "unit": "%"}, {"measurement": "Percent inhibition of C4-2B MR cell proliferation", "setting": "[3]; 0.04 μM", "result": 11, "unit": "%"}, {"measurement": "Percent inhibition of C4-2B MR cell proliferation", "setting": "[3]; 0.20 μM", "result": 22, "unit": "%"}, {"measurement": "Percent inhibition of C4-2B MR cell proliferation", "setting": "[3]; 1.00 μM", "result": 7, "unit": "%"}, {"measurement": "Percent inhibition of C4-2B MR cell proliferation", "setting": "[3]; 5.00 μM", "result": 16, "unit": "%"}, {"measurement": "Percent inhibition of KLK2 mRNA in C4-2B MR cells", "setting": "[4]; 0.04 μM", "result": 28, "unit": "%"}, {"measurement": "Percent inhibition of KLK2 mRNA in C4-2B MR cells", "setting": "[4]; 0.20 μM", "result": 29, "unit": "%"}, {"measurement": "Percent inhibition of KLK2 mRNA in C4-2B MR cells", "setting": "[4]; 1.00 μM", "result": 23, "unit": "%"}, {"measurement": "Percent inhibition of KLK2 mRNA in C4-2B MR cells", "setting": "[4]; 5.00 μM", "result": 22, "unit": "%"}]}
{"substance": "ISIS 584149: antisense compound targeted to human AR (GTCAATATCAAAGCAC; 3-10-3 (S)-cEt gapmer, further chemistry not given here)", "values": [{"measurement": "Body Wt", "setting": "[5]", "result": 2.5, "unit": "kg"}, {"measurement": "Heart weight", "setting": "[5]", "result": 9.3, "unit": "g"}, {"measurement": "Kidney weight", "setting": "[5]", "result": 13, "unit": "g"}, {"measurement": "Liver weight", "setting": "[5]", "result": 60, "unit": "g"}, {"measurement": "Mesenteric lymph nodes weight", "setting": "[5]", "result": 2.1, "unit": "g"}, {"measurement": "Spleen weight", "setting": "[5]", "result": 2.2, "unit": "g"}, {"measurement": "C3 (% of baseline)", "setting": "[6]", "result": "110 % of baseline"}, {"measurement": "CRP", "setting": "[6]", "result": 1.7, "unit": "mg/dL"}, {"measurement": "Plasma BUN", "setting": "[7]", "result": 26.4, "unit": "mg/dL"}, {"measurement": "Plasma Creatinine", "setting": "[7]", "result": 0.85, "unit": "mg/dL"}, {"measurement": "Urine protein/creatinine ratio", "setting": "[8]", "result": 0.01}, {"measurement": "ALT", "setting": "[9]", "result": 57, "unit": "IU/L"}, {"measurement": "AST", "setting": "[9]", "result": 58, "unit": "IU/L"}, {"measurement": "Albumin", "setting": "[9]", "result": 4.5, "unit": "g/dL"}, {"measurement": "HCT", "setting": "[10]", "result": 45, "unit": "%"}, {"measurement": "Hemoglobin", "setting": "[10]", "result": 13.7, "unit": "g/dL"}, {"measurement": "Platelets", "setting": "[10]", "result": 478000, "unit": "µL"}, {"measurement": "RBC", "setting": "[10]", "result": "5.7e+06", "unit": "µL"}, {"measurement": "WBC", "setting": "[10]", "result": 11300, "unit": "µL"}]}
